{"source": "paper PMC3163001", "about": "(Organic letters, 2011)", "biological_target": "SylD-CA (Pseudomonas syringae, UniProt Q83Y48)", "experiment": "ATP-PPi radioactivity exchange assay", "assay_type": "biochemical", "settings": "reversible adenylation", "data": [{"smiles": "NCCCC[C@H](N)C(=O)O", "note": "[L-lysine]", "values": [{"measurement": "ATP-PPi radioactivity exchange assay", "result": "L-lysine was reversibly adenylated at a much slower rate"}]}, {"smiles": "NCC/C=C/[C@H](N)C(=O)O", "note": "[L-3,4-dehydrolysine]", "values": [{"measurement": "ATP-PPi radioactivity exchange assay", "setting": "preferred substrate of the A domain", "result": "As expected L-3,4-dhl was preferentially reversibly adenylated"}]}]}
